These results are taken from PubChem BioAssay (NCI).

Molecules are shown by their SMILES. Where “and” joins values, the source holds several entries; their conditions need not be identical. Equal values may be shown once.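 Cultured in 96-well plates, cells were exposed to test compound for 48 hours across five concentrations. GI50 marks 50% less growth. The concentration for full growth arrest is given as TGI.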

The test system of the assay is MDA-MB-468 breast. Nature of the assay: growth of human tumour cells (NCI), 48 h.
Regarding `C[C@@H]1CC[C@@H]2[C@@H]1[C@H](OC(=O)/C=C/c1ccccc1)[C@]1(C3CCCCC3)C[C@@H](NC(=O)CO)[C@@]2(C)O1`, the GI50 is 17100 nM and the TGI was determined as 33.5 µM.

In the case of `Cn1cc(C2=C(c3cccnc3)C(=O)NC2=O)c2ccccc21`, the GI50 is above 20100 nM and the TGI is above 25 µM.

Turning to `CC(=O)O[C@H](C[C@H](C(C)C)N(C)C(=O)[C@@H](NC(=O)[C@H]1CCCCN1C)C(C)C)c1nc(C(=O)N[C@@H](Cc2ccccc2)C[C@H](C)C(=O)O)c(C(C)C)s1`, the GI50 was below 3.33 nM and the TGI is 0.194 µM.

Turning to `COc1cnc2c(c1)C(=O)c1c-2n(CCCN2CCC(O)CC2)c(=O)c2cc(F)ccc12`, the GI50 was 152 nM and the TGI is 0.438 µM.

On to `CN(C)CCOc1ccc(/C(=C(/CCCl)c2ccccc2)c2ccccc2)cc1`, for which the GI50 is 682 nM and the TGI amounted to 1.52 µM.

On to `Cc1cnc(/C=N\NC(N)=S)c2cccc(N)c12`, for which the GI50 was 206 nM and the TGI is 0.504 µM.

On to `COC(=O)[C@]12CC[C@@H](C)[C@H](C)[C@@H]1C1=CC[C@@H]3[C@@]4(C)C(C=O)=C[C@@](C)(COC(=O)c5ccco5)[C@@H]4C(=O)C[C@@]3(C)[C@]1(C)CC2`, for which the GI50 is 277 nM.

As to `Oc1c(CN2CCCC2)cc(COCc2ccc(Br)cc2)c2cccnc12`, the GI50 is 602 nM and the TGI came out at 2.14 µM.

For the compound `CN(C)c1ncnc2c1nnn2C1OC(CO)C(O)C1O` (configuration not stated), the GI50 is 73.6 nM and the TGI amounted to 1.16 µM.

On to `CN(C)c1ccc(/C=C(\C#N)c2nc3ccccc3n2C)cc1`, for which the GI50 was 1760 nM and the TGI is above 100 µM.

For `Cc1cc(C2=NNC(=O)Cc3cc4c(cc32)OCCO4)cc(C)c1N`, the GI50 is 523 nM and the TGI was 7.24 µM.

Regarding `CCCC[N+](CCCC)=c1ccc2nc3c(C)cc(N(CC)CC)cc3sc-2c1`, the GI50 is 39.1 nM and the TGI stood at 0.351 µM.

As to `CC1=C2C(=C[C@@](C)(C=O)[C@@H]2O)C(=O)[C@](C)(O)C12CC2`, the GI50 was 233 nM and the TGI was found to be 0.764 µM.

With `N#Cc1ccc(N2Cc3ccccc3OC3=C2C(=O)c2c(O)ccc(O)c2C3=O)cc1`, the GI50 is 132 nM and the TGI came out at 0.366 µM.

Take `COc1cc2nccc(Oc3ccc(NC(=O)C4(C(=O)Nc5ccc(F)cc5)CC4)cc3)c2cc1Oc1ccc(N)cn1`: the GI50 was 2450 nM and the TGI stood at 8.82 µM.

Consider `O=[N+]([O-])c1ccc2c(N3CCC(CCCC4CCN(c5ncnc6cc([N+](=O)[O-])ccc56)CC4)CC3)ncnc2c1`, for which the GI50 is 31.6 nM and the TGI is above 100 µM.

In the case of `C#C[C@]1(O)CC[C@H]2[C@@H]3CC=C4c5sc(Nc6cccc(C)n6)nc5CC[C@]4(C)[C@H]3CC[C@@]21C`, the GI50 is 2040 nM and the TGI came out at 5.68 µM.

On to `CNC(=O)c1ccc2cc(C3(O)CCn4cncc43)ccc2c1` (configuration not stated), for which the GI50 is above 100000 nM and the TGI was above 100 µM.

Consider `O=c1c2ccccc2n2n1CC(O)C2` (configuration not stated), for which the GI50 was above 100000 nM and the TGI was above 100 µM.

`C=CC[P+](c1ccccc1)(c1ccccc1)c1ccccc1`: the GI50 is 609 nM and the TGI was 9.13 µM.

Take `CC(C)(C)c1[nH]cnc1/C=c1\[nH]c(=O)/c(=C/c2ccccc2)[nH]c1=O`: the GI50 is 22.6 nM and the TGI is 28.6 µM.

As for `O=C(CN1CCN(c2ccc(Cl)cc2)CC1)N1CCN(c2nnc(-c3ccc(Cl)cc3)c(-c3ccc(Cl)cc3)n2)CC1`, the GI50 is 18800 nM and the TGI was 65.2 µM.

As to `CC/C=C\C/C=C\C[C@H](O)C/C=C1/C(=O)C=C[C@@H]1C/C=C\CCCC(=O)O`, the GI50 is 2320 nM and the TGI amounted to 6.71 µM.

For the compound `COc1ccc(-c2nn(-c3cccc(NC(=O)c4ccc5c(c4)OCCO5)c3)cc2-c2ccncc2)cc1Cl`, the GI50 is 1630 nM and the TGI was found to be 6.48 µM.

Turning to `CC1CCN(CCCCCOc2ccc3oc4cc(Cl)ccc4c(=O)c3c2)CC1`, the GI50 was 6130 nM and the TGI is 13.6 µM.

For `COc1ccc(C2=NN(C(=O)c3cc(OC)c(OC)c(OC)c3)C(c3ccc(Cl)cc3)C2)cc1OC` (configuration not stated), the GI50 was 585 nM and the TGI is above 100 µM.

In the case of `CC(C)(C#N)c1cc(F)cc(C(=O)Nc2cc(Nc3ncccc3-c3ncnc4nc[nH]c34)ccc2F)c1`, the GI50 was above 10000 nM and the TGI was above 10 µM.

As to `O=C(Nc1ccc(Oc2ccc3nc(NC(=O)c4ccccc4)[nH]c3c2)cc1)Nc1cc(C(F)(F)F)ccc1F`, the GI50 was 625 nM and the TGI is 5.45 µM.

As to `CC[C@H](Nc1nc(N)nc(C)c1C#N)c1nc2cccc(NCc3ccc(C(=O)NO)cc3)c2c(=O)n1-c1ccccc1`, the GI50 was 1270 nM and the TGI turned out to be 4.42 µM.

For the compound `CC(=O)OCC(=O)O[C@@H]1C[C@]2(C(C)C)O[C@@]1(C)[C@@H]1CC[C@@H](C)[C@H]1[C@@H]2OC(=O)/C=C/c1ccccc1`, the GI50 was 13500 nM and the TGI amounted to 55.6 µM.

For `O=C(Nc1cccc(Oc2nnc(Cl)c3ccccc23)c1)Nc1ccc(Cl)c(C(F)(F)F)c1`, the GI50 was 689 nM and the TGI worked out at 3.43 µM.

Consider `O=C(Nc1ccc(Cl)cc1F)c1cc(I)ccc1O`, for which the GI50 is 2100 nM and the TGI is 5.45 µM.

Consider `CN1CCN(c2ccc3nc(-c4c(N)c5c(F)cccc5[nH]c4=O)[nH]c3c2)CC1`, for which the GI50 is 1460 nM and 953 nM and 2300 nM; the TGI is 3.58 µM and > 2.3 µM and 7.03 µM.

Regarding `O=C(CCCN1CCOCC1)Nc1ccc(Cn2nnc3c2C(=O)c2nnn(Cc4ccc(NC(=O)CCCN5CCOCC5)cc4)c2C3=O)cc1`, the GI50 was 304 nM and the TGI was 0.817 µM.

Take `CN1CCN(Cc2ccc(NC(=O)c3cncc(C#Cc4cncc5ncccc45)c3)cc2C(F)(F)F)CC1`: the GI50 was 8720 nM and the TGI amounted to 21.8 µM.

For the compound `O=C1c2ccccc2C(=Cc2ccccc2)c2ccccc21`, the GI50 is 565 nM and the TGI was 10.7 µM.

On to `Cc1noc(C)c1-c1cc(O)cc(C(O)c2ccccc2)c1` (configuration not stated), for which the GI50 is 1890 nM and the TGI worked out at 40.6 µM.

Consider `CCN1C(=O)NC(=O)C(C)(N2C(=O)c3c(F)c(F)c(F)c(F)c3C2=O)C1=O` (configuration not stated), for which the GI50 is 1750 nM and the TGI worked out at 5.68 µM.

Take `O=C(CF)N(O)c1ccc(/C=C/c2ccccc2)cc1`: the GI50 is 64.2 nM and the TGI turned out to be 0.354 µM.
